Source: ChEMBL document CHEMBL5365532, “Discovery of Triazinone Derivatives as Novel, Specific, and Direct NLRP3 Inflammasome Inhibitors for the Treatment of DSS-Induced Ulcerative Colitis” (J Med Chem, 2023)
The source made the active and inactive calls. No cut-off for these calls is given here.

Key:
[1] = molecular target: NACHT, LRR and PYD domains-containing protein 3 (Mus musculus) (UniProt Q8R4B8); assay: Inhibition of NLRP3 inflammasome in C57BL/6 mouse BMDM cells assessed as inhibition of LPS/ATP-induced IL-1 beta secretion at 0.2 to 0.8 uM pretreated with LPS for 3 hrs followed by incubation with compound for 40 mins and later stimulated with ATP for 1 hr by ELISA; type: cell-based; conditions: dose 0.2-0.8 µM, time 100.0 min
[2] = Cmax in BALB/c mouse at 10 mg/kg, iv; type: ADME, organism-based; parameters: dose 10 mg/kg, route iv; conditions: in vivo
Mus musculus [3] = assay: Antiinflammatory activity against DSS-induced ulcerative colitis C57BL/6 mouse model assessed as decrease in body weight loss at 10 to 30 mg/kg, ip fed with DSS for 6 days followed by administration with compound for 5 days; type: functional, organism-based; conditions: dose 10-30 mg/kg, time 5.0 day
Mus musculus [4] = assay: Antiinflammatory activity against DSS-induced ulcerative colitis C57BL/6 mouse model assessed as decrease in TNF-alpha level in colon at 10 to 30 mg/kg, ip fed with DSS for 6 days followed by administration with compound for 5 days and measured on day 11 by ELISA; type: functional, organism-based; conditions: dose 10-30 mg/kg, time 5.0 day
[5] = molecular target: NACHT, LRR and PYD domains-containing protein 3 (Mus musculus) (UniProt Q8R4B8); assay: Inhibition of NLRP3 inflammasome in C57BL/6 mouse BMDM cells assessed as inhibition of LPS/alum-induced IL-1 beta secretion at 0.2 to 0.8 uM pretreated with LPS for 3 hrs followed by incubation with compound for 40 mins and later stimulated with alum for 4 hrs by ELISA; type: cell-based; conditions: dose 0.2-0.8 µM, time 280.0 min
Mus musculus [6] = assay: Antiinflammatory activity against DSS-induced ulcerative colitis C57BL/6 mouse model assessed as decrease in disease activity index at 20 to 30 mg/kg, ip fed with DSS for 6 days followed by administration with compound for 5 days; type: functional, organism-based; conditions: dose 20-30 mg/kg, time 5.0 day
Homo sapiens [7] = species: Homo sapiens; assay: Binding affinity to N-terminal GST-tagged human NLRP3deltaLRR mutant (1 to 649 residues) expressed in Escherichia coli BL21 assessed as increase in protein thermal stability at 10 to 20 uM at 48 to 72 degC by CETSA analysis; conditions: dose 10-20 µM
Homo sapiens [8] = species: Homo sapiens; assay: Binding affinity to N-terminal GST-tagged human NLRP3deltaLRR mutant (1 to 649 residues) expressed in Escherichia coli BL21 assessed as decrease in pronase-mediated protein degradation at 1 to 100 uM incubated with compound for 50 mins followed by pronase digestion for 30 mins by DARTS analysis; conditions: dose 1-100 µM, time 80.0 min
Mus musculus [9] = assay: Antiinflammatory activity against DSS-induced ulcerative colitis C57BL/6 mouse model assessed as decrease in goblet cell loss in colon at 10 to 30 mg/kg, ip fed with DSS for 6 days followed by administration with compound for 5 days and measured on day 11 by H and E staining based analysis; type: functional, organism-based; conditions: dose 10-30 mg/kg, time 5.0 day
[10] = Tmax in BALB/c mouse at 10 mg/kg, po; type: ADME, organism-based; conditions: in vivo
THP-1 [11] = assay: Effect on ASC protein expression in PMA-differentiated human THP-1 cells at 0.2 to 0.8 uM pretreated with LPS for 3 hrs followed by incubation with compound for 40 mins and later stimulated with nigericin for 35 mins by western blot analysis; type: functional, cell-based; conditions: dose 0.2-0.8 µM, time 75.0 min
THP-1 [12] = assay: Effect on NLRP3 protein expression in PMA-differentiated human THP-1 cells at 0.2 to 0.8 uM pretreated with compound for 40 mins followed by LPS challenge for 3 hrs by western blot analysis; type: functional, cell-based; conditions: dose 0.2-0.8 µM, time 220.0 min
[13] = molecular target: NACHT, LRR and PYD domains-containing protein 3 (Mus musculus) (UniProt Q8R4B8); assay: Inhibition of NLRP3 inflammasome in C57BL/6 mouse BMDM cells assessed as inhibition of LPS/MSU-induced IL-1 beta secretion at 0.2 to 0.8 uM pretreated with LPS for 3 hrs followed by incubation with compound for 40 mins and later stimulated with MSU for 12 hrs by ELISA; type: cell-based; conditions: dose 0.2-0.8 µM, time 760.0 min
[14] = molecular target: NLR family CARD domain-containing protein 4 (Mus musculus) (UniProt Q3UP24); assay: Inhibition of NLRC4 inflammasome in C57BL/6 mouse BMDM cells assessed as inhibition of LPS/flagellin-induced IL-1 beta secretion at 0.2 to 0.8 uM pretreated with LPS for 3 hrs followed by incubation with compound for 40 mins and later stimulated with flagellin for 6 hrs by ELISA; type: cell-based; conditions: dose 0.2-0.8 µM, time 400.0 min
THP-1 [15] = assay: Cytotoxicity against PMA-differentiated human THP-1 cells assessed as cell viability at 0.16 to 20 uM incubated for 24 hrs by CCK8 assay; type: toxicity, cell-based; conditions: thp-1, 24 h, dose 0.16-20 µM
[16] = AUC (0 to t) in BALB/c mouse at 10 mg/kg, iv; type: ADME, organism-based; parameters: dose 10 mg/kg, route iv; conditions: in vivo
[17] = AUC (0 to t) in BALB/c mouse at 10 mg/kg, po; type: ADME, organism-based; parameters: dose 10 mg/kg, route po; conditions: in vivo
Mus musculus [18] = assay: Antiinflammatory activity against DSS-induced ulcerative colitis C57BL/6 mouse model assessed as decrease in colon length shortening at 10 to 30 mg/kg, ip fed with DSS for 6 days followed by administration with compound for 5 days and measured on day 11; type: functional, organism-based; conditions: dose 10-30 mg/kg, time 5.0 day
THP-1 [19] = assay: Inhibition of K+ efflux in PMA-differentiated human THP-1 cells at 0.8 to 45 uM pretreated with LPS for 3 hrs followed by incubation with compound for 40 mins and later stimulated with nigericin for 35 mins; type: functional, cell-based; conditions: dose 0.8-45 µM, time 75.0 min
[20] = molecular target: T1, Interferon-inducible protein AIM2 (Mus musculus) (UniProt Q91VJ1); assay: Inhibition of AIM2 inflammasome in C57BL/6 mouse BMDM cells assessed as inhibition of LPS/poly(dA:dT)-induced IL-1 beta secretion at 0.2 to 0.8 uM pretreated with LPS for 3 hrs followed by incubation with compound for 40 mins and later stimulated with poly(dA:dT) for 6 hrs by ELISA; type: cell-based; conditions: dose 0.2-0.8 µM, time 400.0 min
T1 sequence (whole entry): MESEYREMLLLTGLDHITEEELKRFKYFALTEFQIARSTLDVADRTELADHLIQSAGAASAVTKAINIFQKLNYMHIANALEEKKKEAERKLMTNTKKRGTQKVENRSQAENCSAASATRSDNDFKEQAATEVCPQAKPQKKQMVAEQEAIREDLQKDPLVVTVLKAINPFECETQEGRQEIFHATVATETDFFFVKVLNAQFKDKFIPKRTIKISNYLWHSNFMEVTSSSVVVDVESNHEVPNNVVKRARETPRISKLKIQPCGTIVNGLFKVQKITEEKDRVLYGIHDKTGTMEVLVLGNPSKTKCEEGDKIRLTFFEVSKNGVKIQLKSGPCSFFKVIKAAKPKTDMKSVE

[21] = MRT (0 to t) in BALB/c mouse at 10 mg/kg, iv; type: ADME, organism-based; conditions: in vivo
Mus musculus [22] = assay: Antiinflammatory activity against DSS-induced ulcerative colitis C57BL/6 mouse model assessed as decrease in NLRP3 protein expression in colon at 30 mg/kg, ip fed with DSS for 6 days followed by administration with compound for 5 days and measured on day 11 by western blot analysis; type: functional, organism-based; conditions: time 5.0 day
[23] = Half life in BALB/c mouse at 10 mg/kg, po; type: ADME, organism-based; conditions: in vivo
BMDM = assay: Cytotoxicity against C57BL/6 mouse BMDM cells assessed as cell viability at 0.16 to 20 uM incubated for 24 hrs by CCK8 assay; type: toxicity, cell-based; conditions: dose 0.16-20 µM
[24] = Tmax in BALB/c mouse at 10 mg/kg, iv; type: ADME, organism-based; conditions: in vivo

Chain of NACHT, LRR and PYD domains-containing protein 3 (Mus musculus) (Q8R4B8 whole entry, the tested form may be a part): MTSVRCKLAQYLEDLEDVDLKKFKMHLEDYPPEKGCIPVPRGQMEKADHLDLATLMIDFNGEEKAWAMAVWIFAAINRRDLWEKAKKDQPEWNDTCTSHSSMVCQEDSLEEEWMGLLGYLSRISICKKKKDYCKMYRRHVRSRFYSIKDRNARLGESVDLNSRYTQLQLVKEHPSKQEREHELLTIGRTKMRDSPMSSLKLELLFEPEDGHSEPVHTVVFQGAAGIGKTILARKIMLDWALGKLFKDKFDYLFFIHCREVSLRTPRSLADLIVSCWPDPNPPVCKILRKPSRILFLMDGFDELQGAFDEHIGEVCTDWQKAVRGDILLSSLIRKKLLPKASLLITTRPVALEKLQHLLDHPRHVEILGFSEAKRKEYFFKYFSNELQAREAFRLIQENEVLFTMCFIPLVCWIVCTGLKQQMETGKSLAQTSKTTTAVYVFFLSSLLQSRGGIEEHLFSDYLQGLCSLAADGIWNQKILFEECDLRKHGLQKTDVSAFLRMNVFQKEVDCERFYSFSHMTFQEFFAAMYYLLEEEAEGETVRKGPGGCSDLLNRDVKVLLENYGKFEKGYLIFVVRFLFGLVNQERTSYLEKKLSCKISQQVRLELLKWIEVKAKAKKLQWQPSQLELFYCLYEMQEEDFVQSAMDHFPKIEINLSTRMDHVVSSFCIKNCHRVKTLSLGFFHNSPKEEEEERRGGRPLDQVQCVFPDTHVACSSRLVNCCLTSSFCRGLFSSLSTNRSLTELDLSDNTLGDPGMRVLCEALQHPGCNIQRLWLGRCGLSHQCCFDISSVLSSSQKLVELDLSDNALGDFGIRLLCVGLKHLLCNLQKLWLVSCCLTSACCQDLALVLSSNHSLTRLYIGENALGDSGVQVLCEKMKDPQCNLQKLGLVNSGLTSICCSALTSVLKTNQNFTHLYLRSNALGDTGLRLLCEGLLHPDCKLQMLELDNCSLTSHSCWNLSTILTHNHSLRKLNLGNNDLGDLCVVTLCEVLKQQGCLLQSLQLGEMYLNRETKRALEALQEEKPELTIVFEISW
Chain of NLR family CARD domain-containing protein 4 (Mus musculus) (Q3UP24 whole entry, the tested form may be a part): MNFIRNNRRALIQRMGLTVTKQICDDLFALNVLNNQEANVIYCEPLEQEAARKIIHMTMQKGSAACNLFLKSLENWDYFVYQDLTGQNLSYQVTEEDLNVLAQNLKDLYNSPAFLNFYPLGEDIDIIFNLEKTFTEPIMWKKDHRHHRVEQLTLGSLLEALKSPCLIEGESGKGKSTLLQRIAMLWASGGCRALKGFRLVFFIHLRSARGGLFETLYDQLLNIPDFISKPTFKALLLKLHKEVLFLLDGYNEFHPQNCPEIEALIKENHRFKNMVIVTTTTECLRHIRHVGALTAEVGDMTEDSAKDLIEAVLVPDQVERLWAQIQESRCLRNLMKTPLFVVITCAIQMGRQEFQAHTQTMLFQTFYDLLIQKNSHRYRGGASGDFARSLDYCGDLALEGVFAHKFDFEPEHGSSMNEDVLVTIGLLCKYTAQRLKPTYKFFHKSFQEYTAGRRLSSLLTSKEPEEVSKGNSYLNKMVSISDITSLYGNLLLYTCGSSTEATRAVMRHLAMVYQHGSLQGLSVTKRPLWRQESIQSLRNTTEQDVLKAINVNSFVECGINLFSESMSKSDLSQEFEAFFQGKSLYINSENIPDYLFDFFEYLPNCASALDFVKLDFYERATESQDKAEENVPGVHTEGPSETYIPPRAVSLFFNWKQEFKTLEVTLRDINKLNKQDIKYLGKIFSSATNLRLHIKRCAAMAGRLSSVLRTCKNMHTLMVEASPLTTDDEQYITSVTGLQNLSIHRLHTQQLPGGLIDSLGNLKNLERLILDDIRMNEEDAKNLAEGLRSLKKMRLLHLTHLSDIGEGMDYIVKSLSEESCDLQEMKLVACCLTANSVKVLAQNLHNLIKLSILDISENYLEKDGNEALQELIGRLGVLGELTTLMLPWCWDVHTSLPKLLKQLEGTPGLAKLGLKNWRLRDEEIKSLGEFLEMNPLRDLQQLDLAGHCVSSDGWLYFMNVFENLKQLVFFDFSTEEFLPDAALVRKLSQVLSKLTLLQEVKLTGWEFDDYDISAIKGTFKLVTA

For `CC(C)c1nn(Cc2nnc(-c3ccc(C(F)(F)F)nc3Cl)o2)c(=O)c2cc3sc(Cl)cc3n12`, the inhibition [1] was “Active”, the Cmax [2] was 3890 ng/mL and the Activity (Mus musculus [3]) was “Active”. For the same compound, the Activity (Mus musculus [4]) was “Active”, the inhibition [5] was “Active” and the Activity (Mus musculus [6]) was “Active”. The Activity (Homo sapiens [7]) was “Active”, the Activity (Homo sapiens [8]) was “Active” and the Activity (Mus musculus [9]) was “Active”. The Tmax [10] was 1 h, the Activity (THP-1 [11]) was “inactive” and the Activity (THP-1 [12]) was “inactive”. The inhibition [13] was “Active”, the inhibition [14] was “inactive” and the Activity (THP-1 [15]) was “Non-Toxic”. For the same compound, the AUC(0-t) [16] was 5210 ng·h/mL, the AUC(0-t) [17] was 1170 ng·h/mL and the Activity (Mus musculus [18]) was “Active”. The inhibition (THP-1 [19]) was “inactive”, the inhibition [20] was “inactive” and the MRT last [21] was 1.54 h. The Activity (Mus musculus [22]) was “Active”, the half-life [23] was 1.31 h and the Activity (BMDM) was “Non-Toxic”. It also gave a Tmax [24] of 4.8 min.
